Experimental data taken from US20240025880A1 (CHIESI FARMACEUTICI S.P.A., priority 2020, published 2024).
Where a name gives a salt, the structure may show the parent alone. Read-outs that look alike come from different tables or passages of the source.

Assays:
[1] = target: T1, h P2X3 (Homo sapiens, UniProt P56373); assay: In vitro electrophysiology assay for P2X3 (automated whole-cell patch clamp, α,β-MeATP agonist); type: cell-based; conditions: 800 nM α,β-MeATP, peak current, read-out: h P2X3 (pIC50 range of activity) (converted)
T1 sequence (P56373 1-397): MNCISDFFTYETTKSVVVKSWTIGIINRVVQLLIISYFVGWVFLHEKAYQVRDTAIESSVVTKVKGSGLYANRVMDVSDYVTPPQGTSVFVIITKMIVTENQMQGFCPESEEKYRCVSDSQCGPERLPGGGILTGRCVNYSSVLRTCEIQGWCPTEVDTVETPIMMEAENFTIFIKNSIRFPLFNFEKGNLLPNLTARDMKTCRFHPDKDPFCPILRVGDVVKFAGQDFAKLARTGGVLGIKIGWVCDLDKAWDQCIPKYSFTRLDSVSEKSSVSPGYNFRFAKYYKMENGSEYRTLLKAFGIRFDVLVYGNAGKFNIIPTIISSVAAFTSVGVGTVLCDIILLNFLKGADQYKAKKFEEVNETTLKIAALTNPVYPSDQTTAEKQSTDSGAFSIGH
Protocol: In Vitro Electrophysiology Assay for P2X3
(§1) Cells expressing P2X3 receptors were grown according to standard practice and maintained at 37° C. in a 5% humidified CO2 atmosphere. The cells were seeded into T175 flask 2 days prior to the day of the assay and dissociated from the flasks using TrypLE when grown to confluence of 80-90%. The dissociated cells were resuspended in serum free media at a cell density of 3×10^6 cells/ml and loaded onto the Sophion Qube automated patch-clamp system. The extracellular assay buffer contained 145 mM NaCl, 4 mM KCl, 2 mM CaCl2, 1 mM MgCl2, 10 mM HEPES, and 10 mM glucose at pH 7.4. The intracellular assay solution contained 140 mM CsF, 10 mM NaCl, 10 mM EGTA, 10 mM HEPES at pH 7.2. Agonist stock solutions were prepared in H2O and diluted in bath solution prior to use. All antagonists were prepared as 10 mM stock solutions in DMSO and diluted in bath solution prior to use. All experiments were performed under the whole-cell patch clamp configuration at room temperature with 384 individual cells being voltage clamped at −60 mV simultaneously on the Sophion Qube instrument. Two baseline responses were established with the application of α,β-MeATP (800 nM), with the subsequent agonist applications being washed out using extracellular assay buffer containing 0.5 U/ml apyrase. Following the second agonist application, antagonist was incubated in the absence of α,β-MeATP for 10 minutes. After antagonist preincubation, 800 nM α,β-MeATP and antagonist were co-administered to determine the inhibitory effect of the antagonist. One concentration of an antagonist was assessed against a single cell, with different concentrations of the antagonist applied to other cells on the 384 recording substrate. The control P2X3 current amplitude was taken from the peak current amplitude from the second agonist response prior to preincubation with antagonist. The peak P2X3 current amplitude in the presence of antagonist was used to calculate the inhibitory effect at each concentration of the antagonist according to the following equation:
Percentage inhibition of P2X3=(P2X3 control peak amplitude−P2X3 antagonist peak amplitude)/P2X3 control peak amplitude)*100
Concentration-response curves were constructed from ten different concentrations with each concentration of antagonist tested on at least two individual cells. The concentration of the antagonist to inhibit P2X3 current by 50% (IC50) was determined by fitting the data with the following equation:
Y=a+[(b−a)/(1+10^((log c−x)d)]
Where ‘a’ is minimum response, ‘b’ is maximum response, ‘c’ is IC50 and ‘d’ is Hill slope.

[2] = target: T2, h P2X2/3 (Homo sapiens, UniProt P56373+Q9UBL9); assay: In vitro electrophysiology assay for P2X2/3 (same protocol, 10 μM ATP agonist); type: cell-based; conditions: Table 3, mean current seven seconds after agonist, read-out: h P2X2/3 (pIC50 range of activity) (converted)
T2 construct: host or cells: cells not described; same protocol as the P2X3 assay
T2 sequence (P56373 1-397): T1 sequence (P56373 1-397)
T2 sequence (Q9UBL9 1-471): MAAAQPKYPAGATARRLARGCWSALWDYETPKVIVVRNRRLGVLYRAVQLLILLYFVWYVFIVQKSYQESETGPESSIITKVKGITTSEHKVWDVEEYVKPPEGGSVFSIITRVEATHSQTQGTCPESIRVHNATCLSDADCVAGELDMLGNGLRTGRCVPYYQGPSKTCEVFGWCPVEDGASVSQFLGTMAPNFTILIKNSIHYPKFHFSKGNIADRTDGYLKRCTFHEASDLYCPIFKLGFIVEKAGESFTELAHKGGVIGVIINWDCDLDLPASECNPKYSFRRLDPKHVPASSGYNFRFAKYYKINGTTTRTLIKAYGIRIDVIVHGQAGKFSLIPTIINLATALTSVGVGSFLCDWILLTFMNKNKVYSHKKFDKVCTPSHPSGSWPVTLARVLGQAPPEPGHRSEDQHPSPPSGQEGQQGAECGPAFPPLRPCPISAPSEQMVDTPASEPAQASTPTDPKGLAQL
Protocol: as §1, with “equation: […]” for “equation:”
In vitro Electrophysiology Assay for P2X2/3
Representative compound of the present invention have been also tested for P2X2/3 receptor.
The same assay protocol was used for the P2X2/3 assay as the P2X3 assay with two modifications: 1) 10 μM ATP was used as the agonist; and 2) the mean current amplitude was measured seven seconds after the application of agonist.

SMILES | IC50 ([1]; Table 2) | IC50 ([1]; Table 3) | IC50 [2]
Cc1nnc(C(C)Nc2ncnc3c(OCC(F)F)cc(-c4ccc(F)cn4)cc23)s1 (single isomer, unassigned; enantiomer 1) [Example 6, Single enantiomer 1 of 8-(2,2-difluoroethoxy)-6-(5-fluoro-2-pyridyl)-N-[1-(5-methyl-1,3,4-thiadiazol-2-yl)ethyl]quinazolin-4-amine] | < 0.316 µM | < 0.316 µM | 3.16 to 31.6 µM
CNS(=O)(=O)c1cc(-c2ccc(F)cc2)cc2c(N[C@H](C)c3noc(C)n3)ncnc12 [Example 22, (R)-6-(4-fluorophenyl)-N-methyl-4-((1-(5-methyl-1,2,4-oxadiazol-3-yl)ethyl)amino)quinazoline-8-sulfonamide] | < 0.316 µM | < 0.316 µM | 3.16 to 31.6 µM
CNS(=O)(=O)c1cc(-c2ccc(F)cc2)cc2c(N[C@H](C)c3ccc(C)nn3)ncnc12 [Example 21, (R)-6-(4-fluorophenyl)-N-methyl-4-((1-(6-methylpyridazin-3-yl)ethyl)amino)quinazoline-8-sulfonamide] | < 0.316 µM | < 0.316 µM | 3.16 to 31.6 µM
Cc1ccc(CNc2ncnc3c(OCC(F)F)cc(-c4ccc(F)cc4)cc23)nn1 [Example 1, 8-(2,2-difluoroethoxy)-6-(4-fluorophenyl)-N-((6-methylpyridazin-3-yl)methyl)quinazolin-4-amine] | < 0.316 µM | < 0.316 µM | 3.16 to 31.6 µM
Cc1ccc([C@@H](C)Nc2ncnc3c(S(=O)(=O)N4CCC(F)(F)C4)cc(-c4ccc(F)cc4)cc23)nn1 [Example 16] | < 0.316 µM | < 0.316 µM | 0.316 to 3.16 µM
Cc1nc([C@@H](C)Nc2ncnc3c(S(=O)(=O)N(C)C)cc(-c4ccc(F)cc4)cc23)no1 (stereo in doubt) [Example 15, 6-(4-fluorophenyl)-N,N-dimethyl-4-((1-(5-methyl-1,2,4-oxadiazol-3-yl)ethyl)amino)quinazoline-8-sulfonamide] | < 0.316 µM | < 0.316 µM | 0.316 to 3.16 µM
Cc1cnc(-c2cc(OCC(F)F)c3ncnc(NCc4ccc(C)nn4)c3c2)nc1 [Example 9, 8-(2,2-difluoroethoxy)-N-[(6-methylpyridazin-3-yl)methyl]-6-(5-methylpyrimidin-2-yl)quinazolin-4-amine] | < 0.316 µM | < 0.316 µM | 0.316 to 3.16 µM
C[C@@H](Nc1ncnc2c(OCC(F)F)cc(-c3ccc(F)cc3)cc12)c1cnc(C(F)(F)F)nc1 [Example 2, (R)-8-(2,2-difluoroethoxy)-6-(4-fluorophenyl)-N-(1-(2-(trifluoromethyl)pyrimidin-5-yl)ethyl)quinazolin-4-amine] | < 0.316 µM | < 0.316 µM | 0.316 to 3.16 µM

Now from value to molecule:

IC50 ([1]; Table 2) | IC50 ([1]; Table 3) | IC50 [2] | SMILES
0.316 to 3.16 µM | 0.316 to 3.16 µM | 3.16 to 31.6 µM | COC(=O)C1(NC(=O)COc2cc(-c3ccc(F)cc3)cc3c(N[C@H](C)c4cnc(C(F)(F)F)nc4)ncnc23)CC1 [Example 43, Methyl (R)-1-(2-((6-(4-fluorophenyl)-4-((1-(2-(trifluoromethyl)pyrimidin-5-yl)ethyl)amino)quinazolin-8-yl)oxy)acetamido) cyclopropane-1-carboxylate]
0.316 to 3.16 µM | 0.316 to 3.16 µM | 3.16 to 31.6 µM | COC(=O)N1CCC(Oc2cc(-c3ccc(F)cc3)cc3c(NCc4ccc(C)nn4)ncnc23)CC1 [Example 65, Methyl 4-[6-(4-fluorophenyl)-4-[(6-methylpyridazin-3-yl)methylamino]quinazolin-8-yl]oxypiperidine-1-carboxylate]
< 0.316 µM | < 0.316 µM | 0.316 to 3.16 µM | Cc1ccc([C@@H](C)Nc2ncnc3c([S+](C)[O-])cc(-c4ccc(F)cc4)cc23)nn1 (stereo partly drawn) [Example 27, 6-(4-fluorophenyl)-N-((R)-1-(6-methylpyridazin-3-yl)ethyl)-8-(methylsulfinyl)quinazolin-4-amine]
< 0.316 µM | < 0.316 µM | 0.316 to 3.16 µM | C[C@@H](Nc1ncnc2c(OC3CCNC3=O)cc(-c3ccc(F)cc3)cc12)c1cnc(C(F)(F)F)nc1 (stereo partly drawn) [Example 34, 3-((6-(4-fluorophenyl)-4-(((R)-1-(2-(trifluoromethyl)pyrimidin-5-yl)ethyl)amino)quinazolin-8-yl)oxy)pyrrolidin-2-one]
0.316 to 3.16 µM | 0.316 to 3.16 µM | 3.16 to 31.6 µM | COC(=O)C1(NC(=O)COc2cc(-c3ccc(F)cc3)cc3c(NCc4ccc(C)nn4)ncnc23)CC1 [Example 42, Methyl 1-(2-((6-(4-fluorophenyl)-4-(((6-methylpyridazin-3-yl)methyl)amino)quinazolin-8-yl)oxy)acetamido)cyclopropane-1-carboxylate]
0.316 to 3.16 µM | 0.316 to 3.16 µM | 3.16 to 31.6 µM | COC(=O)N1CCC(Oc2cc(-c3ccc(F)cc3)cc3c(NCc4ccc(C)nn4)ncnc23)C1 (stereo not drawn) [Example 68, Methyl 3-[6-(4-fluorophenyl)-4-[(6-methylpyridazin-3-yl)methylamino]quinazolin-8-yl]oxypyrrolidine-1-carboxylate]
0.316 to 3.16 µM | 0.316 to 3.16 µM | 3.16 to 31.6 µM | C[C@@H](Nc1ncnc2c(OCC3(C(=O)O)CCNCC3)cc(-c3ccc(F)cc3)cc12)c1cnc(C(F)(F)F)nc1 [Example 47, (R)-4-(((6-(4-fluorophenyl)-4-((1-(2-(trifluoromethyl)pyrimidin-5-yl)ethyl)amino)quinazolin-8-yl)oxy)methyl)piperidine-4-carboxylic acid hydrochloride]
